Laboratory results as given in patent US20060009357A1, “Azo dye, ink jet recording ink, heat sensitive recording material, color toner, color filter, ink jet recording method, ink cartridge and ink jet printer” (FUJI PHOTO FILM CO., LTD., priority 2004, published 2006).

How the values were obtained:
[1] = Light fastness of recorded image (xenon light, weatherometer); format: physicochemical; design: key: An image having a dye retention of 80% or higher at every measuring point was graded A; An image having a dye retention lower than 80% at one or two out of three points was graded B; An image having a dye retention lower than 80% at every point was graded C; conditions: dye retention after xenon light 85,000 lux for 7 days; initial densities 1, 1.5, 2.0; Super Photo Grade paper
Protocol: An image was recorded on photo glossy paper (Super Photo Grade, available from Fuji Photo Film Co., Ltd.) on ink jet printer (PM-770C, available from Seiko Epson Corp.) by using each of ink liquids A to I. The resulting image was evaluated for hue, light fastness, and ozone resistance as follows.
As to light fastness, the image density immediately after recording (initial density: Ci) was measured with a reflection densitometer X-Rite 310TR. After the image was exposed to xenon light (85,000 lux) for 7 days in a weatherometer (Atlas C.65, from Atlas Electric Devices Co.), the image density (Cf) was measured again at three points whose initial densities were 1, 1.5, and 2.0. A dye retention (%) was calculated from equation: Dye retention (%)=[…]
An image having a dye retention of 80% or higher at every measuring point was graded A. An image having a dye retention lower than 80% at one or two out of three points was graded B. An image having a dye retention lower than 80% at every point was graded C.

[2] = Ozone resistance of recorded image (ozone gas chamber); format: physicochemical; conditions: dye retention after ozone gas 5 ppm for 24 hours; three density points; Super Photo Grade paper
Protocol: An image was recorded on photo glossy paper (Super Photo Grade, available from Fuji Photo Film Co., Ltd.) on ink jet printer (PM-770C, available from Seiko Epson Corp.) by using each of ink liquids A to I. The resulting image was evaluated for hue, light fastness, and ozone resistance as follows. As to ozone resistance, the recorded image was left to stand in a chamber having an ozone gas concentration of 5 ppm for 24 hours. A dye retention after exposure to ozone was obtained in the same manner as for evaluation of light fastness. The ozone concentration in the chamber was set with an ozone gas monitor (OZG-EM-01, available from […] Co., Ltd.). An image having a dye retention of 70% or higher at every measuring point was graded A. An image having a dye retention lower than 70% at one or two out of three points was graded B. An image having a dye retention lower than 70% at every point was graded C.

Cn1c(=O)cc2c3c(c(Nc4ccc(Nc5nc(O)nc(Nc6cc(S(=O)(=O)[O-])ccc6S(=O)(=O)O)n5)cc4S(=O)(=O)O)ccc31)C(=O)c1ccccc1-2.[Na+] [h-2]
Light Fastness [1]: B | Ozone fastness [2]: C (An image having a dye retention lower than 70% at every point was graded C)

O=C(O)c1ccccc1/N=N/c1c(S(=O)(=O)O)cc2cc(S(=O)(=O)[O-])cc(Nc3nc(O)nc(Nc4ccccc4C(=O)O)n3)c2c1O.[Na+] [h-3]
Light Fastness [1]: C (An image having a dye retention lower than 80% at every point was graded C) | Ozone fastness [2]: C (An image having a dye retention lower than 70% at every point was graded C)
